Source: patent publication US20120270237A9, “METHODS FOR THE IDENTIFICATION OF KINASE INTERACTING MOLECULES AND FOR THE PURIFICATION OF KINASE PROTEINS” (Cellzone AG, priority 2009, published 2012)

Columns and labels:
Test in all cases: Kinobeads competition binding, HeLa Placenta lysate mix
Parameters in all cases: endogenous in cells
Conditions in all cases: 10 μM free compound
[1] = biological target: T1, PKD2 (Homo sapiens, UniProt Q9BZL6)
T1 sequence (Q9BZL6 1-878): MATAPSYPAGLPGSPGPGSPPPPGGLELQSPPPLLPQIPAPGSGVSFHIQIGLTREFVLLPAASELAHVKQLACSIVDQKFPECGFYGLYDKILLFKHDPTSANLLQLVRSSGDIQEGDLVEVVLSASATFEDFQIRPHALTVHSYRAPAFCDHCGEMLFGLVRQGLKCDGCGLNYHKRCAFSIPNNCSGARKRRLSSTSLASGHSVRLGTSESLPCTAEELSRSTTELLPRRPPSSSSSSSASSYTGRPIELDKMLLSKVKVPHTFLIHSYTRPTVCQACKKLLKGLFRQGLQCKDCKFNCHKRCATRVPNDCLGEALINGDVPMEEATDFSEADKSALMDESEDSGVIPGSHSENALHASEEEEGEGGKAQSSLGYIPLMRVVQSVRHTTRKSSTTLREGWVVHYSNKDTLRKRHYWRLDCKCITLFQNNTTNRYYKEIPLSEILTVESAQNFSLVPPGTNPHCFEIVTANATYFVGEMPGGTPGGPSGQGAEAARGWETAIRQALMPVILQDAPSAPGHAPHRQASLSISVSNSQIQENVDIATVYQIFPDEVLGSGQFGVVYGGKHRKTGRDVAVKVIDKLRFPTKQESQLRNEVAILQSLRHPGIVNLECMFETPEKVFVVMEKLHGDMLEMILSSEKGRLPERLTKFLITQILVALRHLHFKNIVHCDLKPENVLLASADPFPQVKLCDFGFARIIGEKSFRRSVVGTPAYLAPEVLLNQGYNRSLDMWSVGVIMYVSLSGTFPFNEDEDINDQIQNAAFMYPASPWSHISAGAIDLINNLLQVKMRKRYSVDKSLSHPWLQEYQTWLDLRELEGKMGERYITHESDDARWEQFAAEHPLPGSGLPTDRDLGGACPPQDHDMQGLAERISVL
In short: (§1)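 Competition pulldown: free compound at 10 μM competes with an immobilized-compound affinity matrix for lysate proteins. Captured proteins undergo SDS-PAGE and in-gel tryptic digestion, then iTRAQ-labeled LC-MS/MS quantification relative to a DMSO-treated aliquot.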

[2] = biological target: AAK1 (Homo sapiens, UniProt Q2M2I8)
In short: as §1

[3] = biological target: T2, MAP3K5 (Homo sapiens, UniProt Q99683)
T2 sequence (Q99683 1-1374): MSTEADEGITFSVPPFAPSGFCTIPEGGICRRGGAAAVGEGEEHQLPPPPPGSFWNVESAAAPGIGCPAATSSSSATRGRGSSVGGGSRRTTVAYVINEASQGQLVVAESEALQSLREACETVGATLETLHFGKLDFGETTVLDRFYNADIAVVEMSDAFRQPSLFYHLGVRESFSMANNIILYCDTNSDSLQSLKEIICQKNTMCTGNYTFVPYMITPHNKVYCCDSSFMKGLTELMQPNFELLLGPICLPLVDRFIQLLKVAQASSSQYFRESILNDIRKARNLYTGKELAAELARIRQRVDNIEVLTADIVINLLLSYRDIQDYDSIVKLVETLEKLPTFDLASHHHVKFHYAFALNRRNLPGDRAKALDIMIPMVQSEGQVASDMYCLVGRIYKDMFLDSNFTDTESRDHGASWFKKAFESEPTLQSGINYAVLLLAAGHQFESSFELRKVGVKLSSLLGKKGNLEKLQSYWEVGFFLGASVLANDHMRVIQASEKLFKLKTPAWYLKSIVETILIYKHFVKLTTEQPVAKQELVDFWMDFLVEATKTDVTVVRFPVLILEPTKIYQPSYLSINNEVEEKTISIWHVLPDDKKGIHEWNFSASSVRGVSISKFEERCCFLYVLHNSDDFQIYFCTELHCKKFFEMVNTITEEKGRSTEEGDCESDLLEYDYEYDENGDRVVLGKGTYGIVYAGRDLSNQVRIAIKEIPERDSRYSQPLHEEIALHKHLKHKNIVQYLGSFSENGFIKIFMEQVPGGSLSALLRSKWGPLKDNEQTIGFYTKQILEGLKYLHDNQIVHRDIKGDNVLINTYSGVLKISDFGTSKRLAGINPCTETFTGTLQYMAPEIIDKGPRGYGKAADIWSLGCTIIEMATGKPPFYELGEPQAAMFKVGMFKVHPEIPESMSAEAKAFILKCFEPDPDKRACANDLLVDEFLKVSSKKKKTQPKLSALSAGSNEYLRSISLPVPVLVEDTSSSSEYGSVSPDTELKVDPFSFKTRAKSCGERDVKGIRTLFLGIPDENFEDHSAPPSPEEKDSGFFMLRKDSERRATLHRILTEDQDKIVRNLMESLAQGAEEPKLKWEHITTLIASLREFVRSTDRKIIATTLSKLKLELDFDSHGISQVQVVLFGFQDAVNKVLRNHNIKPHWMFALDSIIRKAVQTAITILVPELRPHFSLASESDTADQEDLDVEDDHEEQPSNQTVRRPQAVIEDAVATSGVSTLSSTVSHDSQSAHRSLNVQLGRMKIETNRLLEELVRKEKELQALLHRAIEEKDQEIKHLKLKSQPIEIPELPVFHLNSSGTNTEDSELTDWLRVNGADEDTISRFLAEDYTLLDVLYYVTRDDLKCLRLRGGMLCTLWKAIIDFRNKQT
In short: as §1

Chain of AAK1 (Q2M2I8 whole entry): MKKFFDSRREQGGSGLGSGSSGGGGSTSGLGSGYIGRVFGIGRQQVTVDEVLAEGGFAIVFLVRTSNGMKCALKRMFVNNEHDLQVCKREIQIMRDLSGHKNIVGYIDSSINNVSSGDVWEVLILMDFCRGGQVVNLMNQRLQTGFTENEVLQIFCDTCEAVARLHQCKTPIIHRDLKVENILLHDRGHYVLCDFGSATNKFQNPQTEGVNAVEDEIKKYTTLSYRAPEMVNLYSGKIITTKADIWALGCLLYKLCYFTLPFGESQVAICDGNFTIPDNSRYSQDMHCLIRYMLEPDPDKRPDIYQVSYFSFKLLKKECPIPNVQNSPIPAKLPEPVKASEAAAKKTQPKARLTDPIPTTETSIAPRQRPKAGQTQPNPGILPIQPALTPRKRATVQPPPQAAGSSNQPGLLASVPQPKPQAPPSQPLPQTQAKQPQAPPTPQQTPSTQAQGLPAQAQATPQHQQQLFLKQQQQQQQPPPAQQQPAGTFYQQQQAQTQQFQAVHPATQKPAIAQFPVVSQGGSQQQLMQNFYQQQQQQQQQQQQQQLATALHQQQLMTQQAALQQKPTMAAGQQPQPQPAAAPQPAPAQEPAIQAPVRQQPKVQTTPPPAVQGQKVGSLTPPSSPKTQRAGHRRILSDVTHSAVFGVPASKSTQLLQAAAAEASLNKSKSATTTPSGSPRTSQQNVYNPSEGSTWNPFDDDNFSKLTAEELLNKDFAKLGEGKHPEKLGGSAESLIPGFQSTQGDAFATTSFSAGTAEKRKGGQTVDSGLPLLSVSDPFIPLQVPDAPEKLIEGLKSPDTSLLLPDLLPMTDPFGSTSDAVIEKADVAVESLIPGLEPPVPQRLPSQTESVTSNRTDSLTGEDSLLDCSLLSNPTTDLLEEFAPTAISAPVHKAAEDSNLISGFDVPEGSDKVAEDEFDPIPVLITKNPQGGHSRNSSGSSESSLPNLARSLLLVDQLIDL

inhibition at 10 µM [1]: 95.4% | inhibition at 10 µM [2]: 94.5% | inhibition at 10 µM [3]: 86%
SMILES: CS(=O)(=O)Nc1ccccc1Nc1nc(Nc2cccc(OCCN)c2)ncc1Cl [CZC31326, N-(2-(2-(3-(2-aminoethoxy)phenylamino)-5-chloropyrimidin-4-ylamino)phenyl)methanesulfonamide]
